One series has as its system CCL5. Particulars: ref Mizumoto et al., 2013; cited from earlier work.
The series “NMR” deals with the molecule itself. Put plainly: NMR.

The source of these data is publication PMC4456249 (Structure (London, England : 1993), 2015).

What is called stoichiometry N is the number of molecules, sites or subunits per partner or assembly.

For dermatan sulfate [DS], in the series with CCL5, the “Affinity for CCL5” value is recorded as “submicromolar affinities”.

With chondroitin sulfate [CS], in the series on CCL5, the “Affinity for CCL5” value was “submicromolar affinities”.

B1: E66S CCL5 (natural protein)
chain: MSPYSSDTTPCCFAYIARPLPRAHIKEYFYTSGKCSNPAVVFVTRKNRQVCANPEKKWVREYINSLSMS
For the molecule B1, in “NMR”, the “ratio of dimer-to-monomer (30 uM, 40 °C, without CS444)” value is approximately 1 and the “stoichiometry N” value was determined as 2.
